US10500224B2, “Mutual prodrug comprising short chain fatty acids and zebularine or 1'-cyano-cytarabine for cancer treatment” (KAINOS MEDICINE, INC., priority 2013, dated 2019)

Tests used:
[1] = tested on: MOLT-4 (human acute lymphoblastic leukemia); test: Anti-proliferative activity test (CellTiter-Glo), MOLT-4; format: cell-based; settings: MOLT-4, hematological
Description: (§1) Six hundred cells in 90 media were plated per well in duplicates in a 96-well plate. Cells were incubated in a humidified incubator at 37° C. with 5% CO2 during the assay. DMSO was added to the test compounds with the final DMSO concentration being 0.1% [v/v] of the culture. 100 μl of CellTiter-Glo® was added to the equal volume of cultured cells to read luminescence in EnVision Multi Label Reader.

[2] = tested on: MV-4-11 (human biphenotypic B myelomonocytic leukemia); test: Anti-proliferative activity test (CellTiter-Glo), MV-4-11; format: cell-based; settings: MV-4-11, hematological
Description: as §1

[3] = tested on: HL-60 (human acute promyelocytic leukemia); test: Anti-proliferative activity test (CellTiter-Glo), HL-60; format: cell-based; settings: HL-60, hematological
Description: as §1

[4] = tested on: Hep G2 (human hepatocellular carcinoma); test: Anti-proliferative activity test (CellTiter-Glo), Hep G2; format: cell-based; settings: Hep G2, liver cancer
Description: as §1

[5] = tested on: HCT 116 (human colorectal carcinoma); test: Anti-proliferative activity test (CellTiter-Glo), HCT 116; format: cell-based; settings: HCT 116, colon cancer
Description: as §1

[6] = tested on: HL-60 human leukemia xenograft; test: Efficacy of PO-administered Compound 12 in HL-60 human leukemia xenograft; format: in vivo, NOD/SCID female mice; settings: 5 d ON/2 d Off × 2
Description: Tumor growth inhibition (TGI) activities of IP-administered Ara-C, and PO-administered Compound 12 were compared in HL-60 human leukemia xenografts.
NOD/SCID female mice of 6-8 weeks age and weighing approximately 18 to 22 g, were used for tumor inoculation. Each mouse was inoculated subcutaneously at the right flank with HL-60 cancer cells (1×10^7 cells) in mixture of 100 μl of PBS and 100 μl of Matrigel™ for tumor development. Eight mice were used for each group (n=8/group). The amounts of treated compounds are represented in milligram (mg) of compound per kilogram (kg) of animal body weight (mg/kg, mpk). Administration route of the test compound was either intraperitoneal (IP) injection or peros (PO, oral) injection. […] The overall administration schedule was 2 cycles of treatment for 5 days (5 d ON), followed by 2 days of non-treatment (2 d OFF). Tumor sizes were measured using a caliper, once every 4 days, and the tumor volume was expressed in mm^3 using Equation 1: V=0.5a×b^2 [Equation 1]
Wherein, a and b are the long and short diameters of the tumor, respectively.
The tumor volume (mm^3) and body weight (g) results of the three groups are shown in FIGS. 4A and 4B, respectively.

[7] = tested on: HL-60 human leukemia xenograft; test: Tumor growth inhibition of IP-administered Compound 12 in HL-60 human leukemia xenograft; format: in vivo, NOD/SCID female mice
Description: Tumor growth inhibition activities of IP-administered Ara-C and Compound 12 were compared in HL-60 human leukemia xenograft.
NOD/SCID female mice of 6-8 weeks age and weighing approximately 18 to 22 g, were used for tumor inoculation. Each mouse was inoculated subcutaneously at the right flank with HL-60 tumor cells (1×10^7 cells) in mixture of 100 μl of PBS and 100 of μl Matrigel™ for tumor development. Eight mice were used for each group (n=8/group). The amounts of treated compounds are represented in milligram (mg) of compound per kilogram (kg) of animal body weight (mg/kg, mpk). Administration route of all test compounds was through IP injection. […] The overall administration schedule was 2 cycles of compound treatment for 5 days, followed by 2 days of non-treatment. Tumor sizes were measured using a caliper, once every 4 days, and the tumor volume was expressed in mm^3 using Equation 1.
The tumor volume (mm^3) and body weight (g) results of five groups are shown in FIGS. 5A and 5B, respectively.

[8] = target: T1, recombinant human cytidine deaminase (CDA) (Homo sapiens, UniProt P32320); test: Cytidine deaminase (CDA) assay; format: biochemical
T1 construct: His6; host or cells: E. coli
T1 sequence (P32320 whole entry): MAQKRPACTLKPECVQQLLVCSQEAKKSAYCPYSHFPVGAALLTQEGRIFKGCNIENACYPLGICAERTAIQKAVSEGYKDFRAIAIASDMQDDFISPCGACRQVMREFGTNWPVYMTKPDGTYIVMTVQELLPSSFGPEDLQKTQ

[9] = Mouse pharmacokinetics of Compound 12; format: in vivo, ICR mice; settings: ICR, plasma, 10 mg/kg
Description: (§2) Pharmacokinetics of Compound 12 prepared in Example 1 were evaluated in ICR mice and SD rats following intravenous (IV) administration at 10 mg/kg and peroral (PO) administration at 10 mg/kg dose level, respectively.
(§3) For serum compound analysis, blood samples were collected by cardiac puncture over 24 hr time course. 20 μl of spiked plasma was added into 96 well plate, adding ten volumes of internal standard (IS) in acetonitrile (ACN) to precipitate proteins, mixed fully, centrifuged for 10 min at 4,000 rpm. 150 μl of supernatant was transferred to another pre-labeled 96 well plate, mixed with 150 μl of water, then injected 5 μl or 10 μl into the liquid chromatography-mass spectrometry (LC-MS) system under the following conditions:
(§4) Column: API-4000+Waters UPLC (TCLM08);
(§5) Lower limit of quantification (LLOQ) was at 1 ng/mL. Pharmacokinetic parameters of half-life (T1/2), clearance (CL), maximum plasma concentration (Cmax), time when the maximal serum concentration of compound is achieved (Tmax) and bioavailability (F %), exposure (AUC) and volume of distribution (Vss) of the compound were calculated using Phoenix WinNonlin 6.3 (non-compartmental model).

[10] = Rat pharmacokinetics of Compound 12; format: in vivo, SD rats; settings: SD, plasma, 10 mg/kg
Description: as §2, §3, §4, §5

[11] = Pharmacokinetics of Compounds 16, 22 and 23; format: in vivo, SCID/mice; settings: SCID, mouse, plasma
Description: Pharmacokinetics of Compound 16 (Comparative example) prepared in step 3 of Example 2, and mutual prodrugs of Compounds 22 and 23 prepared in Example 3 and 4, respectively, were evaluated in SCID/mice following oral (PO) and intravenous (IV) administration according to the route/dose as shown in Table 4.
Blood samples were collected over 24 hrs, and plasma samples were prepared. Plasma concentrations of the test compounds were analyzed by LC/MS/MS. The maximum plasma concentration (Cmax), exposure (AUC), bioavailability (F %), half-life (T1/2), clearance (CL), volume of distribution (Vss), time when the maximal serum concentration of compound is achieved (Tmax) and mean residence time (MRT) were calculated as were in Test Example 3.

MOLT-4 xenograft = test: Tumor growth inhibition of Compounds 22 and 23 in MOLT-4 xenograft; format: in vivo, mice
[12] = 150 mpk, 5 d ON/2 d OFF × 2, FIG. 6

SMILES | IC50 ([1]; Homo sapiens) [nM] | IC50 ([2]; Homo sapiens, MV4-11) [nM] | IC50 ([3]; Homo sapiens) [nM] | IC50 ([4]; Homo sapiens, HepG2) [nM] | IC50 ([5]; Homo sapiens) [nM] | TGI (%) ([7]; 60 mpk) | AUC ([11]; 75 mg/kg, PO/75 mpk) [ng·h/mL] | Cmax ([11]; 75 mg/kg, PO/75 mpk) [µM] | AUC ([11]; 150 mg/kg, PO/150 mpk) [ng·h/mL] | Cmax ([11]; 150 mg/kg, PO/150 mpk) [µM] | MRT ([11]; 150 mg/kg, PO/150 mpk) [h] | Tmax ([11]; 150 mg/kg, PO/150 mpk) [h] | bioavailability ([11]; 150 mg/kg, PO/150 mpk) [%] | half-life ([11]; 150 mg/kg, PO/150 mpk) [h] | TGI (MOLT-4 xenograft; [12]) [%] | also measured
Nc1ccn([C@@H]2O[C@H](CO)[C@@H](O)[C@@H]2O)c(=O)n1 [Ara-C, cytarabine] | 20 | 3100 | 630 | 1910 | 290 | 60 |  |  |  |  |  |  |  |  |  | % BW change ([6]; 40 mpk, IP): −6.2%; % TGI ([6]; 40 mpk, IP): 46%
N#C[C@@]1(n2ccc(N)nc2=O)O[C@H](CO)[C@@H](O)[C@@H]1O [Compound 11] |  |  |  |  |  |  |  |  |  |  |  |  |  |  |  | susceptibility to deamination by CDA [8]: resistant to deamination by CDA; Relative rxn velocity ([8]; 0.01 mM substrate, 25° C., OD282, relative to cytidine): <0.01; IC50 [1]: 1060 nM; IC50 [2]: 5000 nM; IC50 [3]: 2410 nM; IC50 [4]: 6000 nM; IC50 [5]: 960 nM
CCCC(=O)OC[C@H]1O[C@@](C#N)(n2ccc(N)nc2=O)[C@@H](O)[C@@H]1O [Compound 12, ((2R,3S,4S,5R)-5-(4-amino-2-oxopyrimidin-1(2H)-yl)-5-cyano-3,4-dihydroxytetrahydrofuran-2-yl)methyl Butyrate] | 1140 | 130 | 5060 | 560 | 220 | 59 |  |  |  |  |  |  |  |  |  | clearance ([9]; IV): 21.6 mL/min/kg; half-life ([9]; IV): 3.1 h; bioavailability ([9]; PO): 62%; half-life ([9]; PO): 4.6 h; clearance ([10]; IV): 11.4 mL/min/kg; half-life ([10]; IV): 3.1 h; bioavailability ([10]; PO): 48.8%; half-life ([10]; PO): 2.5 h; % BW change ([6]; 60 mpk, PO): −0.9%; % TGI ([6]; 60 mpk, PO): 50%; TGI (%) ([7]; 20 mpk): 36%; TGI (%) ([7]; 40 mpk): 46%
O=c1ncccn1[C@@H]1O[C@H](CO)[C@@H](O)[C@H]1O [Compound 16, 1-((2R,3R,4S,5R)-3,4-dihydroxy-5-(hydroxymethyl)tetrahydrofuran-2-yl)pyrimidin-2(1H)-one, reference compound] |  |  |  |  |  |  |  |  |  |  |  |  |  |  |  | AUC ([11]; 100 mg/kg, IV/100 mpk): 54600 ng·h/mL; clearance ([11]; 100 mg/kg, IV/100 mpk): 30.2 mL/min/kg; half-life ([11]; 100 mg/kg, IV/100 mpk): 2.03 h; Vd ([11]; 100 mg/kg, IV/100 mpk, read-out: Vss): 0.91 L/kg; AUC ([11]; 500 mg/kg, PO/500 mpk): 20900 ng·h/mL; Cmax ([11]; 500 mg/kg, PO/500 mpk): 22.3 µM; bioavailability ([11]; 500 mg/kg, PO/500 mpk): 8.4%; half-life ([11]; 500 mg/kg, PO/500 mpk): 2.44 h; TGI (MOLT-4 xenograft; zebularine, dose not stated, FIG. 6): 10%
CCCC(=O)OC[C@H]1O[C@@H](n2cccnc2=O)[C@H](OC(=O)CCC)[C@@H]1OC(=O)CCC [Compound 22, (2R,3R,4R,5R)-2-((butyryloxy)methyl)-5-(2-oxopyrimidin-1(2H)-yl)tetrahydrofuran-3,4-diyl Dibutyrate] |  |  |  |  |  |  | 500 | 0.88 | 1100 | 4.4 | 1.2 | 0.5 | 2.7 | 1.6 | 40 | 
CC(C)C(=O)OC[C@H]1O[C@@H](n2cccnc2=O)[C@H](OC(=O)C(C)C)[C@@H]1OC(=O)C(C)C [Compound 23, (2R,3R,4R,5R)-2-((isobutyryloxy)methyl)-5-(2-oxopyrimidin-1(2H)-yl)tetrahydrofuran-3,4-diyl bis(2-methylpropanoate)] |  |  |  |  |  |  | 1800 | 5.3 | 6500 | 30.7 | 1.3 | 0.5 | 16 | 4.9 | 40 | 
